# Reference: patent publication US20240092835A1, “NOVEL PEPTIDES CAPABLE OF ALTERING NK CELL ACTIVITY” (Massachusetts Institute of Technology, priority 2022, published 2024)
# Entries after “also recorded” stand apart in the source; their conditions may differ. Where no end group is shown, it is not given here.
# Key:
# CD94/NKG2C = CD94/NKG2C (Homo sapiens, UniProt P26717+Q13241); assay: Steady-state surface plasmon resonance of peptide-HLA-E complex with CD94/NKG2C; format: binding; settings: for Binding of peptide-HLA-E complexes to CD94/NKG2C normalized to a theoretical Rmax: steady-state SPR
# NKG2A+/NKG2C− NK cells = assay: NK cell activation markers in NKG2A+/NKG2C- NK cells incubated with peptide and K562 expressing HLA-E (inhibition); format: cell-based, human; settings: for effect on NKG2A+/NKG2C− NK cell inhibition (in words): K562 expressing HLA-E, CD107a, IFNG, TNF, CCL3; for percentage of CCL3+ NK cells / percentage of CD107a+ NK cells / percentage of IFNG+ NK cells / percentage of TNF+ NK cells: NKG2A+/NKG2C- NK cells, K562/HLA-E
# How it was run: (§1)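 Read-out: % NK cells positive for surface activation markers; a rise indicates activation, a fall indicates inhibition. Targets were K562 cells expressing HLA-E, loaded with human- or HCMV-proteome-derived peptides.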
# NKG2A−/NKG2C+ NK cells [1] = assay: NK cell activation markers in NKG2A-/NKG2C+ NK cells incubated with peptide and K562 expressing HLA-E (activation); format: cell-based, human; settings: for effect on NKG2A−/NKG2C+ NK cell activation (in words): K562 expressing HLA-E, CD107a, IFNG, TNF, CCL3; for percentage of CCL3+ NK cells / percentage of CD107+ NK cells / percentage of IFNG+ NK cells / percentage of TNF+ NK cells: NKG2A-/NKG2C+ NK cells, K562/HLA-E
# How it was run: as §1
# NKG2A−/NKG2C+ NK cells [2] = assay: NKG2A-/NKG2C+ NK cell activation with peptide and RMA-S cells expressing HLA-E; format: cell-based; settings: RMA-S cells expressing HLA-E
# How it was run: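 RMA-S cells with low HLA-E expression were loaded with peptides and tested against NKG2A−/NKG2C+ NK cells, with two reference peptide sequences as controls. Activation read as percent cells positive for CD107a, IFNG, TNF and CCL3.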
# HLA-E = target: T1, HLA-E (Homo sapiens, UniProt P13747); assay: HLA-E surface stabilization assay with RMA-S/HLA-E cells; format: cell-based; settings: 30 μM peptide, 16 hours; for HLA-E surface expression stability (GeoMFI): anti-HLA-E antibody
# T1 construct: expressed in transfected cells; host or cells: RMA-S/HLA-E cells (antigen processing-defective lymphoma cell line)
# Method: HLA-E surface expression was assessed by measuring geometric mean fluorescence intensity (GeoMFI) in RMA-S cells following immunofluorescence staining with an anti-HLA-E antibody (Table 14). Increased GeoMFI was indicative of increased HLA-E surface expression stability following novel peptide exposures (FIG. 3).
# T1 sequence (P13747 22-358): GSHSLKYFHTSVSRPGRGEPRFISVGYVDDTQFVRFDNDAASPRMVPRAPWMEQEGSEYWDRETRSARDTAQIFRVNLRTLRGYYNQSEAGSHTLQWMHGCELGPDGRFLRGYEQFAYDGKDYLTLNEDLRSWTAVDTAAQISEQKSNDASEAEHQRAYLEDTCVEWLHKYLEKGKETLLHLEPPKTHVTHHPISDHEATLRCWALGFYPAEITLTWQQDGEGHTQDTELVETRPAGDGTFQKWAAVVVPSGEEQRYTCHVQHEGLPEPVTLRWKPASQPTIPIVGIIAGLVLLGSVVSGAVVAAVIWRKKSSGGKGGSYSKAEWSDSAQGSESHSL
# T1 sequence (P61769 21-119 partner): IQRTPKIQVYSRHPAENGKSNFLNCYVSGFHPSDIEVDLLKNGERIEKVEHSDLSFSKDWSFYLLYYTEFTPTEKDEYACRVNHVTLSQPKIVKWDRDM
# Chain of CD94/NKG2C (P26717 94-231 limits assumed): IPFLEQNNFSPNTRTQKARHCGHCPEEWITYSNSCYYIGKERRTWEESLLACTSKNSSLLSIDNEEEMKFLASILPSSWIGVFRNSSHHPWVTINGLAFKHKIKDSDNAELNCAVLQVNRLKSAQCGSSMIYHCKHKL
# Chain of CD94/NKG2C (Q13241 32-179 limits assumed): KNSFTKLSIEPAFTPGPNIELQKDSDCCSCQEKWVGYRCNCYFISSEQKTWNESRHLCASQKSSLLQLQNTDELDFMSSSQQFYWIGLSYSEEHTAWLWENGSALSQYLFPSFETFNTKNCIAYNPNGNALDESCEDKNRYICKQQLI
sequence,measurement,setting,value
"VNPGRSLFL [human5, VNPGRSLFL]",binding of peptide-HLA-E complex to CD94/NKG2C normalized to a fitted Rmax,CD94/NKG2C; CD94/NKG2C concentration 0 μM,−0.001
same,binding of peptide-HLA-E complex to CD94/NKG2C normalized to a fitted Rmax,CD94/NKG2C; CD94/NKG2C concentration 0.1 μM,0.064
same,binding of peptide-HLA-E complex to CD94/NKG2C normalized to a fitted Rmax,CD94/NKG2C; CD94/NKG2C concentration 0.2 μM,0.119
same,binding of peptide-HLA-E complex to CD94/NKG2C normalized to a fitted Rmax,CD94/NKG2C; CD94/NKG2C concentration 0.4 μM,0.205
same,binding of peptide-HLA-E complex to CD94/NKG2C normalized to a fitted Rmax,CD94/NKG2C; CD94/NKG2C concentration 0.8 μM,0.333
same,binding of peptide-HLA-E complex to CD94/NKG2C normalized to a fitted Rmax,CD94/NKG2C; CD94/NKG2C concentration 1.6 μM,0.488
same,binding of peptide-HLA-E complex to CD94/NKG2C normalized to a fitted Rmax,CD94/NKG2C; CD94/NKG2C concentration 3.2 μM,0.650
same,binding of peptide-HLA-E complex to CD94/NKG2C normalized to a fitted Rmax,CD94/NKG2C; CD94/NKG2C concentration 6.4 μM,0.795
same,binding of peptide-HLA-E complex to CD94/NKG2C normalized to a fitted Rmax,CD94/NKG2C; CD94/NKG2C concentration 12.8 μM,0.902
same,binding of peptide-HLA-E complex to CD94/NKG2C normalized to a fitted Rmax,CD94/NKG2C; CD94/NKG2C concentration 25.6 μM,0.971
same,binding of peptide-HLA-E complex to CD94/NKG2C normalized to a fitted Rmax,CD94/NKG2C; CD94/NKG2C concentration 51.2 μM,0.990
same,binding of peptide-HLA-E complex to CD94/NKG2C normalized to a fitted Rmax,CD94/NKG2C; CD94/NKG2C concentration 102.4 μM,0.983
same,Binding of peptide-HLA-E complexes to CD94/NKG2C normalized to a theoretical Rmax,CD94/NKG2C; CD94/NKG2C analyte concentration 0 μM,0.000
same,Binding of peptide-HLA-E complexes to CD94/NKG2C normalized to a theoretical Rmax,CD94/NKG2C; CD94/NKG2C analyte concentration 0.1 μM,0.024
same,Binding of peptide-HLA-E complexes to CD94/NKG2C normalized to a theoretical Rmax,CD94/NKG2C; CD94/NKG2C analyte concentration 0.2 μM,0.044
same,Binding of peptide-HLA-E complexes to CD94/NKG2C normalized to a theoretical Rmax,CD94/NKG2C; CD94/NKG2C analyte concentration 0.4 μM,0.076
same,Binding of peptide-HLA-E complexes to CD94/NKG2C normalized to a theoretical Rmax,CD94/NKG2C; CD94/NKG2C analyte concentration 0.8 μM,0.123
same,Binding of peptide-HLA-E complexes to CD94/NKG2C normalized to a theoretical Rmax,CD94/NKG2C; CD94/NKG2C analyte concentration 1.6 μM,0.180
same,Binding of peptide-HLA-E complexes to CD94/NKG2C normalized to a theoretical Rmax,CD94/NKG2C; CD94/NKG2C analyte concentration 3.2 μM,0.240
same,Binding of peptide-HLA-E complexes to CD94/NKG2C normalized to a theoretical Rmax,CD94/NKG2C; CD94/NKG2C analyte concentration 6.4 μM,0.294
same,Binding of peptide-HLA-E complexes to CD94/NKG2C normalized to a theoretical Rmax,CD94/NKG2C; CD94/NKG2C analyte concentration 12.8 μM,0.333
same,Binding of peptide-HLA-E complexes to CD94/NKG2C normalized to a theoretical Rmax,CD94/NKG2C; CD94/NKG2C analyte concentration 25.6 μM,0.359
same,Binding of peptide-HLA-E complexes to CD94/NKG2C normalized to a theoretical Rmax,CD94/NKG2C; CD94/NKG2C analyte concentration 51.2 μM,0.366
same,Binding of peptide-HLA-E complexes to CD94/NKG2C normalized to a theoretical Rmax,CD94/NKG2C; CD94/NKG2C analyte concentration 102.4 μM,0.363
same,effect on NKG2A+/NKG2C− NK cell inhibition (in words),NKG2A+/NKG2C− NK cells; listed as SEQ ID NO. 3,no or minimal effect
same,effect on NKG2A+/NKG2C− NK cell inhibition (in words),NKG2A+/NKG2C− NK cells; listed as h5,no effect
same,percentage of CCL3+ NK cells,NKG2A+/NKG2C− NK cells; Trial 1,51.6%
same,percentage of CD107a+ NK cells,NKG2A+/NKG2C− NK cells; Trial 1,36.8%
same,percentage of IFNG+ NK cells,NKG2A+/NKG2C− NK cells; Trial 1,16.9%
same,percentage of TNF+ NK cells,NKG2A+/NKG2C− NK cells; Trial 1,7.26%
same,percentage of CCL3+ NK cells,NKG2A+/NKG2C− NK cells; Trial 2,71.6%
same,percentage of CD107a+ NK cells,NKG2A+/NKG2C− NK cells; Trial 2,48.4%
same,percentage of IFNG+ NK cells,NKG2A+/NKG2C− NK cells; Trial 2,28.8%
same,percentage of TNF+ NK cells,NKG2A+/NKG2C− NK cells; Trial 2,14.6%
same,percentage of CCL3+ NK cells,NKG2A+/NKG2C− NK cells; Trial 3,55.3%
same,percentage of CD107a+ NK cells,NKG2A+/NKG2C− NK cells; Trial 3,43.1%
same,percentage of IFNG+ NK cells,NKG2A+/NKG2C− NK cells; Trial 3,30.8%
same,percentage of TNF+ NK cells,NKG2A+/NKG2C− NK cells; Trial 3,19.4%
same,percentage of CCL3+ NK cells,NKG2A+/NKG2C− NK cells; Trial 4,40.9%
same,percentage of CD107a+ NK cells,NKG2A+/NKG2C− NK cells; Trial 4,33.4%
same,percentage of IFNG+ NK cells,NKG2A+/NKG2C− NK cells; Trial 4,17.9%
same,percentage of TNF+ NK cells,NKG2A+/NKG2C− NK cells; Trial 4,10.7%
same,percentage of CCL3+ NK cells,NKG2A+/NKG2C− NK cells; Trial 5,44.2%
same,percentage of CD107a+ NK cells,NKG2A+/NKG2C− NK cells; Trial 5,30.4%
same,percentage of IFNG+ NK cells,NKG2A+/NKG2C− NK cells; Trial 5,16.5%
same,percentage of TNF+ NK cells,NKG2A+/NKG2C− NK cells; Trial 5,7.74%
same,percentage of CCL3+ NK cells,NKG2A+/NKG2C− NK cells; Trial 6,33.1%
same,percentage of CD107a+ NK cells,NKG2A+/NKG2C− NK cells; Trial 6,26%
same,percentage of IFNG+ NK cells,NKG2A+/NKG2C− NK cells; Trial 6,10.5%
same,percentage of TNF+ NK cells,NKG2A+/NKG2C− NK cells; Trial 6,6.36%
same,effect on NKG2A−/NKG2C+ NK cell activation (in words),NKG2A−/NKG2C+ NK cells [1]; listed as SEQ ID NO. 3,activate
same,effect on NKG2A−/NKG2C+ NK cell activation (in words),NKG2A−/NKG2C+ NK cells [1]; listed as h5,activated
same,percentage of CCL3+ NK cells,NKG2A−/NKG2C+ NK cells [1]; Trial 1,60.9%
same,percentage of CD107+ NK cells,NKG2A−/NKG2C+ NK cells [1]; Trial 1,59.7%
same,percentage of IFNG+ NK cells,NKG2A−/NKG2C+ NK cells [1]; Trial 1,35.3%
same,percentage of TNF+ NK cells,NKG2A−/NKG2C+ NK cells [1]; Trial 1,17.4%
same,percentage of CCL3+ NK cells,NKG2A−/NKG2C+ NK cells [1]; Trial 2,74.5%
same,percentage of CD107+ NK cells,NKG2A−/NKG2C+ NK cells [1]; Trial 2,61.8%
same,percentage of IFNG+ NK cells,NKG2A−/NKG2C+ NK cells [1]; Trial 2,43.2%
same,percentage of TNF+ NK cells,NKG2A−/NKG2C+ NK cells [1]; Trial 2,23.9%
same,percentage of CCL3+ NK cells,NKG2A−/NKG2C+ NK cells [1]; Trial 3,72.5%
same,percentage of CD107+ NK cells,NKG2A−/NKG2C+ NK cells [1]; Trial 3,72.6%
same,percentage of IFNG+ NK cells,NKG2A−/NKG2C+ NK cells [1]; Trial 3,57.2%
same,percentage of TNF+ NK cells,NKG2A−/NKG2C+ NK cells [1]; Trial 3,42.2%
same,percentage of CCL3+ NK cells,NKG2A−/NKG2C+ NK cells [1]; Trial 4,63.8%
same,percentage of CD107+ NK cells,NKG2A−/NKG2C+ NK cells [1]; Trial 4,64.3%
same,percentage of IFNG+ NK cells,NKG2A−/NKG2C+ NK cells [1]; Trial 4,51.1%
same,percentage of TNF+ NK cells,NKG2A−/NKG2C+ NK cells [1]; Trial 4,36%
same,percentage of CCL3+ NK cells,NKG2A−/NKG2C+ NK cells [1]; Trial 5,69.7%
same,percentage of CD107+ NK cells,NKG2A−/NKG2C+ NK cells [1]; Trial 5,67.6%
same,percentage of IFNG+ NK cells,NKG2A−/NKG2C+ NK cells [1]; Trial 5,53.4%
same,percentage of TNF+ NK cells,NKG2A−/NKG2C+ NK cells [1]; Trial 5,40.4%
same,percentage of CCL3+ NK cells,NKG2A−/NKG2C+ NK cells [1]; Trial 6,47.2%
same,percentage of CD107+ NK cells,NKG2A−/NKG2C+ NK cells [1]; Trial 6,46.8%
same,percentage of IFNG+ NK cells,NKG2A−/NKG2C+ NK cells [1]; Trial 6,28.6%
same,percentage of TNF+ NK cells,NKG2A−/NKG2C+ NK cells [1]; Trial 6,15%
same,NKG2A−/NKG2C+ NK cell activation relative to positive control peptides (in words),NKG2A−/NKG2C+ NK cells [2]; listed as SEQ ID NO. 3,"strongest activation of NK cells, comparable with the positive control peptides for several markers assessed"
same,NKG2A−/NKG2C+ NK cell activation relative to positive control peptides (in words),NKG2A−/NKG2C+ NK cells [2]; listed as h5,"strongest NK cell activation, comparable with the positive control peptides for several markers assessed"
same,HLA-E surface expression stability (GeoMFI),HLA-E; Trial 1,569 GeoMFI
same,HLA-E surface expression stability (GeoMFI),HLA-E; Trial 2,509 GeoMFI
same,HLA-E surface expression stability (GeoMFI),HLA-E; Trial 3,566 GeoMFI
same,HLA-E surface expression stability (GeoMFI),HLA-E; Trial 4,750 GeoMFI
same,HLA-E surface expression stabilization strength (in words),HLA-E; listed as BFAR263-271,closest to the experimental negative control (DMSO); also recorded: lowest
